Patent US12280072B2, “Oligosaccharide compound for inhibiting intrinsic coagulation factor X-enzyme complex, and preparation method therefor and uses thereof” (Jiuzhitang Co., Ltd., priority 2017, dated 2025)

Experiments:
Type in all cases: biochemical
[1] = molecular target: T1, intrinsic factor Xase (Homo sapiens, UniProt P00740); assay: Xase inhibitory activity assay; conditions: for IC50: read-out: Drug concentration required to inhibit 50% of coagulation factor activity (IC50, ng/mL) Xase (converted)
T1 construct: 60 nM FIXa; purchased
Description: Xase inhibitory activity assay: Detection was performed according to kit instructions and literature methods by combining the Factor VIII and […]. Specifically, to each well of a 96-well plate, 30 μL of test solution, control solution, or Tris-HCl buffer (negative control) was added, and 30 μl of FVIII (2 IU/ml), 30 μl of R2 (60 nM FIXa, containing FIIa, PC/PS, Ca^2+) were sequentially added, mixed by shaking the plate, incubated at 37° C. for 2 min; and then 30 μL of R1 (50 nM FX, containing direct thrombin inhibitor) was added, mixed by shaking the plate, incubated at 37° C. for 1 min; and then 30 μL of R3 (FXa chromogenic substrate SXa-11, about 8.4 mM) was added. The absorbance at 405 nm (OD405) was detected with a microplate reader, continuously measuring for 7.5 min at a interval of 30 s. The Xase activity and IC50 value of Xase inhibition of the test sample were calculated based on the OD405 change value.
(§1) Data processing: The average value of OD405 detected by the duplicated well was used as the detection value of the test sample and the reference of each concentration, and the slope of the linear fit between the detected value to the time value (the change rate of the absorbance value OD405/min) indicated enzymatic activity of coagulation factor. Taking the clotting factor activity of the negative control well as 100%, coagulation factor activity (percentage) in the presence of the test sample was calculated. The coagulation factor activity in the presence of the test sample was plotted against the concentration of the test sample, and fitted according to the following formula, to calculate the IC50 value: B=(IC50)^n/{(IC50)^n+[I]^n}
(§2) in the formula, B is the coagulation factor activity (percentage) in the presence of the test sample, [I] is the concentration of the test sample, IC50 is the half inhibitory concentration (concentration of the test sample required to inhibit 50% of the activity), and n is the Hill coefficient. • (4) Effect on surface activation and platelet activity: […]

[2] = molecular target: T2, FIIa (Homo sapiens); assay: HC-II-dependent IIa inhibitory activity assay; conditions: in presence of HC-II; read-out: Drug concentration required to inhibit 50% of coagulation factor activity (IC50, ng/mL) Ha (HC-II) (converted)
T2 construct: antithrombin (i.e., active coagulation factor IIa)
Description: HC-II-dependent IIa inhibitory activity assay: 30 μL of sample, control solution or Tris-HCl buffer (negative control) was added, 30 μL of 1 μM HCII solution was added, and incubated at 37° C. for 2 min; and then 30 μL of 20 NIH/mL FIIa was added, and incubated at 37° C. for 1 min; and finally 30 μL of pre-warmed 4.5 mM FIIa chromogenic substrate CS-01 (38) was added. OD405 was detected by a microplate reader and the IC50 value of FIIa inhibition of each sample was calculated.
as §1, with “B=(IC50)^n/{(IC50)^n+[I]^n} […]” for “B=(IC50)^n/{(IC50)^n+[I]^n}”
T2 sequence (P05546 20-499): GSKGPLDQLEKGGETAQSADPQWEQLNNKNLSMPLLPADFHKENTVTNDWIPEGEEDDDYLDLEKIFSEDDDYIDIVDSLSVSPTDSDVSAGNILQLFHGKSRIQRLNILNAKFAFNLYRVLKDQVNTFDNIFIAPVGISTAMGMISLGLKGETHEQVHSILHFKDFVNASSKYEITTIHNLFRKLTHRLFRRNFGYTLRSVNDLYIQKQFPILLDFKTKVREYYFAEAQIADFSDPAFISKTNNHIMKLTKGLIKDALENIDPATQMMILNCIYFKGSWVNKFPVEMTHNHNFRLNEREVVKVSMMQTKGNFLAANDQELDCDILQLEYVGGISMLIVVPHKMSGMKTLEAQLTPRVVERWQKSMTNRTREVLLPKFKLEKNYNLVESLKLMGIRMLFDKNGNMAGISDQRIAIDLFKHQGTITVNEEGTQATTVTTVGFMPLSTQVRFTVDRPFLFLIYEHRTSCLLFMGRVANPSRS

[3] = test system: human-controlled plasma; assay: Anticoagulant activity assay: PT clotting time
Description: (§3) 8.2 Methods • (1) Preparation of sample solution: Oligosaccharide compounds A1˜A8, B1˜B11 and oligosaccharide mixtures C1, D1, D2 were all dissolved in Tris-HCl buffer and diluted to the desired series of solubility. • (2) Anticoagulant activity assay: 90 μL of human-controlled plasma was added to the sample or 10 μL of the control solution, and then the clotting time (APTT and PT) was detected by the MC-4000 coagulometer according to the method described in the APTT and PT kit instructions. • (3) Coagulation factor inhibitory activity analysis: […]

[4] = molecular target: T3, FIIa (Homo sapiens); assay: AT-dependent IIa inhibitory activity assay; conditions: in presence of AT; for IC50: read-out: Drug concentration required to inhibit 50% of coagulation factor activity (IC50, ng/mL) Ha (AT)
T3 construct: antithrombin (i.e., active coagulation factor IIa); purchased
Description: AT-dependent IIa inhibitory activity assay: Heparin Anti-FIIa kit was used for detection. To a 96-well plate, 30 μL of sample, control solution or Tris-HCl buffer (negative control) was added, and then 30 μL of 1 IU/mL AT solution was added, mixed well by shaking the plate and incubated at 37° C. for 2 min; 30 μL of 24 IU/mL FIIa solution was added, mixed well by shaking the plate and incubated for 2 min at 37° C., and then 30 μL of pre-warmed 1.25 mM FIIa specific chromogenic substrate CS-01 (38) was added, mixed well by shaking the plate. The OD405 was detected by a microplate reader and the IC50 value of FIIa inhibition of each sample was calculated.
as §1, §2
T3 sequence (P01008 33-464): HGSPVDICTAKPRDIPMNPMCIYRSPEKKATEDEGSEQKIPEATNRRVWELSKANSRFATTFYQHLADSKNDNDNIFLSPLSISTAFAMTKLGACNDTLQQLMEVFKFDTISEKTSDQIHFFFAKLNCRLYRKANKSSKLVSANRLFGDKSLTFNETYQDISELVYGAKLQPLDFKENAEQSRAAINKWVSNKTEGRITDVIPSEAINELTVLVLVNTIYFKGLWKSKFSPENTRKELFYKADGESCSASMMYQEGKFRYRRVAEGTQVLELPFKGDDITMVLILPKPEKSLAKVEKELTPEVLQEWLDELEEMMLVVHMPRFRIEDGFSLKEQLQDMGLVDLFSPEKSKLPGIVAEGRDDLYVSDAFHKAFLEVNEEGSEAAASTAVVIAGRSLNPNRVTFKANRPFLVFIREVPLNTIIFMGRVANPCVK

[5] = test system: human-controlled plasma; assay: Anticoagulant activity assay: APTT clotting time
Description: as §3

[6] = molecular target: T4, FXa (Homo sapiens); assay: AT-dependent Xa inhibitory activity assay; conditions: in presence of AT; for IC50: read-out: Drug concentration required to inhibit 50% of coagulation factor activity (IC50, ng/mL) Xa (AT)
T4 construct: 8 μg/mL FXa solution; purchased
Description: AT-dependent Xa inhibitory activity assay: Heparin […] kit was used for detection. To a 96-well plate, 30 μL of sample, control solution or Tris-HCl buffer (negative control) was added, then 30 μL of 1 IU/mL AT solution was added, mixed well and incubated at 37° C. for 1 min; and than 30 μL of 8 μg/mL FXa solution was added, mixed well and incubated at 37° C. for 1 min, then 30 μL of pre-warmed 1.25 mM Xa chromogenic substrate SXa-11 was added. OD405 was detected by a microplate reader.
as §1, §2

[7] = test system: plasma; assay: TT (thrombin time) clotting time

T4 sequence (P01008 33-464): as above
T1 sequence (P00740 47-191 limits assumed): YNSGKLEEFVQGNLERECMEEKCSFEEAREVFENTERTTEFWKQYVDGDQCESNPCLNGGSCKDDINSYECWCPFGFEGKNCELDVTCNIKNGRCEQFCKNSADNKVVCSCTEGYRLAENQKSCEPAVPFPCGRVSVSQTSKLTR
T1 sequence (P00740 227-461 limits assumed): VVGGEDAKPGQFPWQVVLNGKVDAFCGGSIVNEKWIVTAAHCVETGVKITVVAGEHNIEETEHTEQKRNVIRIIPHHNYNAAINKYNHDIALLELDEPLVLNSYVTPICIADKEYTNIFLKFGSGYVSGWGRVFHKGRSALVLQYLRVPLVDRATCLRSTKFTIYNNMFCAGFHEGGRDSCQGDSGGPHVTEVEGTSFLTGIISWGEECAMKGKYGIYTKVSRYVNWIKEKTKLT

Row | Compound | IC50 [1] [nM] | IC50 [2] [nM] | Drug concentration required for multiplication of coagulation time (μg/mL) PT [3] | IC50 [4] [nM] | Drug concentration required for multiplication of coagulation time (μg/mL) APTT [5] [µg/mL] | IC50 [6] [nM] | Drug concentration required for multiplication of coagulation time (μg/mL) TT [7] | Drug concentration required to inhibit 50% of coagulation factor activity (IC50, ng/mL) Xase [1] | Drug concentration required to inhibit 50% of coagulation factor activity (IC50, ng/mL) Ha (AT) [4] | Drug concentration required to inhibit 50% of coagulation factor activity (IC50, ng/mL) Xa (AT) [6]
1 | CC(=O)N[C@H]1[C@H](O[C@H]2[C@H](O[C@@H]3O[C@@H](C)[C@@H](OS(=O)(=O)O)[C@@H](OS(=O)(=O)O)[C@@H]3O)[C@@H](O)C(O)O[C@@H]2C(=O)O)O[C@H](COS(=O)(=O)O)[C@H](OS(=O)(=O)O)[C@@H]1O[C@@H]1OC(C(=O)O)=C[C@H](O[C@@H]2O[C@@H](C)[C@@H](OS(=O)(=O)O)[C@@H](OS(=O)(=O)O)[C@@H]2O)[C@H]1O (stereo partly drawn) [Compound B6, L-Fuc3S4S-(α1,3)-L-ΔUA-(α1,3)-{D-GaNAc4S6S-(β1,4)-[L-Fuc3S4S-(α1,3)]-D-GlcA-(β1,4)}˜-D-GalNAc4S6S-(β1,4)-[L-Fuc3S4S-(α1,3)]-D-GlcA] | 1260 | 615 | # (>128 μg/mL) | > 3760 | 50.2 | > 3760 | # (>128 μg/mL) |  |  | 
2 | CC(=O)NC1C(OC2C(C(=O)O)OC(OC3C(NC(C)=O)C(OC4C(C(=O)O)OC(O)C(O)C4OC4OC(C)C(OS(=O)(=O)O)C(OS(=O)(=O)O)C4O)OC(COS(=O)(=O)O)C3OS(=O)(=O)O)C(O)C2OC2OC(C)C(OS(=O)(=O)O)C(OS(=O)(=O)O)C2O)OC(COS(=O)(=O)O)C(OS(=O)(=O)O)C1OC1OC(C(=O)O)=CC(OC2OC(C)C(OS(=O)(=O)O)C(OS(=O)(=O)O)C2O)C1O [Compound B7, L-Fuc3S4S-(α1,3)-L-ΔUA-(α1,3)-{D-GaNAc4S6S-(β1,4)-[L-Fuc3S4S-(α1,3)]-D-GlcA-(β1,4)}˜-D-GalNAc4S6S-(β1,4)-[L-Fuc3S4S-(α1,3)]-D-GlcA] | 26.8 |  | # (>128 μg/mL) | > 2300 | 7.3 | > 2300 | # (>128 μg/mL) |  |  | 
3 | L-Fuc2S4S-(α1,3)-ΔUA-(α1,3)-{D-GaNAc4S6S-(β1,4)-[L-Fuc2S4S-(α1,3)]-D-GlcA-(β1,3)}n+1-D-GalNAc4S6S-ol [Compound A1] |  |  | # (>128 μg/mL) |  | 60.1 |  | # (>128 μg/mL) | ## (>5000 ng/mL) | ## (>5000 ng/mL) | ## (>5000 ng/mL)
4 | COC(=O)C1=CC(OC2OC(C)C(OS(=O)(=O)O)C(O)C2OS(=O)(=O)O)C(O)C(OC2C(NC(C)=O)C(OC3C(C(=O)OC)OC(OC4C(NC(C)=O)C(OC5C(C(=O)OC)OC(OCc6ccccc6)C(O)C5OC5OC(C)C(OS(=O)(=O)O)C(O)C5OS(=O)(=O)O)OC(COS(=O)(=O)O)C4OS(=O)(=O)O)C(O)C3OC3OC(C)C(OS(=O)(=O)O)C(O)C3OS(=O)(=O)O)OC(COS(=O)(=O)O)C2OS(=O)(=O)O)O1 [Compound B10, L-Fuc2S4S-(α1,3)-L-6-Methyl-ΔUA-(α1,3)-D-GaNAc4S6S-(β1,4)-[L-Fuc2S4S-(α1,3)]-D-6-Methyl-ΔUA-GlcA-(β1,3)-D-GalNAc4S6S-(β1,4)-[L-Fuc2S4S-(α1,3)]-D-O-1-Benzyl-6-Methyl-GlcA] | 26.7 |  | # (>128 μg/mL) | > 2170 | 7.9 | > 2170 | # (>128 μg/mL) |  |  | 
5 | CC(=O)NC1C(OC2C(C(=O)O)OC(OC3C(NC(C)=O)C(OC4C(C(=O)O)OC(OCc5ccccc5)C(O)C4OC4OC(C)C(OS(=O)(=O)O)C(O)C4OS(=O)(=O)O)OC(COS(=O)(=O)O)C3OS(=O)(=O)O)C(O)C2OC2OC(C)C(OS(=O)(=O)O)C(O)C2OS(=O)(=O)O)OC(COS(=O)(=O)O)C(OS(=O)(=O)O)C1OC1OC(C(=O)O)=CC(OC2OC(C)C(OS(=O)(=O)O)C(O)C2OS(=O)(=O)O)C1O [Compound B9, L-Fuc2S4S-(α1,3)-L-ΔUA-(α1,3)-D-GaNAc4S6S-(D1,4)-[L-Fuc2S4S-(α1,3)]-D-GlcA-(β1,3)-D-GalNAc4S6S-(β1,4)-[L-Fuc2S4S-(α1,3)]-D-1-Benzyl-GlcA-ol] | 26.3 |  | # (>128 μg/mL) | > 2210 | 7.6 | > 2210 | # (>128 μg/mL) |  |  | 
6 | CC1OC(OC2C=C(C(=O)O)OC(OC3C(NS(=O)(=O)O)C(OC4C(C(=O)O)OC(OC5C(NS(=O)(=O)O)C(OC6C(C(=O)O)OC(OC(C(CO)NS(=O)(=O)O)C(OS(=O)(=O)O)C(O)COS(=O)(=O)O)C(O)C6OC6OC(C)C(OS(=O)(=O)O)C(O)C6OS(=O)(=O)O)OC(COS(=O)(=O)O)C5OS(=O)(=O)O)C(O)C4OC4OC(C)C(OS(=O)(=O)O)C(O)C4OS(=O)(=O)O)OC(COS(=O)(=O)O)C3OS(=O)(=O)O)C2O)C(OS(=O)(=O)O)C(O)C1OS(=O)(=O)O [Compound A7, L-Fuc2S4S-(α1,3)-L-ΔUA-(α1,3)-{D-GalNS4S6S-(β1,4)-[L-Fuc2S4S-(α1,3)-]-D-GlcA-(β1,3)}2-D-Gal-NS4S6S-ol] | 22.2 |  | # (>128 μg/mL) | > 1880 | 6.9 | > 1880 | # (>128 μg/mL) |  |  | 
